In brackets after ≈: the same amount, converted by molar mass. Square brackets hold non-standard residues; d marks the D form. Peptide text beside a SMILES is read from it. * marks the point of attachment. Palmitoyl = CCCCCCCCCCCCCCCC(=O)*
Assays:
PEDV CV777 = assay: Plaque reduction assay (anti-PEDV activity); type: cell-based, Porcine epidemic diarrhea virus
Procedure: Cercopithecus aethiops kidney epithelial cells (Vero, ATCC, CCL-81) were cultured in high glucose DMEM (Gibco, US), supplemented with 10% fetal bovine serum (FBS, GIBCO), at 37 °C in a 5% CO2 humidified atmosphere. Cells were routinely seeded at a density of 2×10^5 /mL in plastic tissue culture flasks (25 cm^2 flasks, Corning, USA) and passaged every 3–4 days. PEDV CV777 was provided by the Jiangsu Academy of Agricultural Sciences (JAAS).
Vero cells were seeded at 2 × 10^5 cells/well in 24-well tissue culture plates and incubated 18–24 h at 37 °C until approximately 95% confluency was reached. 100 PFU of PEDV mixed with an equal volume of SLP in DMEM or DMEM alone were incubated 10 minutes at 37 °C, then added into the wells of the Vero cells and incubated 30 minutes at 4 °C. Cells were washed 3 times with DMEM then overlaid with DMEM/1% agar and incubated 72 hours at 37 °C. The cells were fixed with 4% formaldehyde, then stained with 0.1% crystal violet after the agar overlay was removed. The data are representative of 3 biological replicates and each plaque assay was performed in triplicate and values are expressed as means ± the standard deviation. Curve fitting and EC50 were calculated with GraphPad Prism 6 using the log[inhibitor] vs. response equation.
The SLPs were tested for anti-PEDV activity using a plaque reduction assay. Serial dilutions of SLPs were incubated with an equal volume of PEDV then aliquoted onto precooled cells in 12-well plates. After the virus has adsorbed to the cells at 4 °C, SLPs were washed away. The adsorbed virus particles were then counted by plaque forming assays (Fig 2A). The results were fitted to a sigmoid-curve and plotted Fig 2B. All SLPs have potent anti-PEDV effects above 50 μg/ml, but differences in their anti-PEDV effect.
Fig 2 Anti-PEDV activities of lipopeptides. (A) PEDV was incubated with series concentrations of SLPs for 10 minutes at 37 °C. After washing cells of unadsorbed virus, the remaining infectious particles was detected by plaque assay. (B) Anti-PEDV activity (% remaining PFU) plotted as a function of lipopeptide concentration. The results of three independent experiments are shown as means ± standard deviation. 100% represents plaque counts in the control (no lipopeptide) sample.

[1] = Critical micelle concentration by surface tension (ring method); type: physicochemical; settings: samples stood 30 min at 22 °C, intersection of two linear regression lines
Procedure: Surface tensions were measured using the ring method. Samples were freshly prepared in a testing flask and allowed to stand for 30 minutes at 22 °C. Surface tension measurements were made using a surface tensiometer (HLD-LST-II, HENLIDA Co., Ltd, China). Linear regressions of the drop and the flat area were performed separately for the surface tension-concentration curve. The concentration at the intersection of the two lines is the critical micelle concentration (CMC).
The CMC was calculated by measuring the surface tension of each SLP over a range of concentrations. […] Linear regressions were performed independently using the data on the descending part of the curve below the CMC and the equilibrium part above the CMC. The intersection of the linear regression lines corresponds to the CMC (Table 3).
Fig 4 Critical micelle concentrations of the SLPs. CMCs were determined for SDS, surfactin, and SLPs by surface tension. The intersection of the two linear regression lines corresponds to the CMC value, (shown by the dotted lines).

[2] = HPLC retention time as measure of hydrophobicity; type: physicochemical; settings: used as indicator of total hydrophobicity, SLP1>SLP2>SLP3
Excerpt: The cationic properties of synthetic lipopeptides are thought to be related to their antibacterial and hemolytic activities. […] Cyclic lipopeptides are reported to more readily lyse bacterial membranes than linear or branched lipopeptides. […] It has also been reported that the total hydrophobicity of synthetic lipopeptides is inversely related to hemolytic activity, although this conclusion was from data on only 3 related samples [27]. […] The relative hydrophobicity of SLP1, 2, and 3 is SLP1>SLP2>SLP3, as indicated by their HPLC retention times (17.6, 16.7, and 14.5 min, respectively).

porcine RBCs = type: cell-based; settings: for CC50 (50% cytotoxicity concentration, hemolysis): red cells of porcine, 1 h
Procedure: Hemolytic activity was measured according to the methods described in Jingdan, with some modifications. Briefly, serial dilutions of SLPs were added to 200 uL of a 1% suspension of porcine RBCs in PBS, followed by incubation for 1 h at 37 °C. Cells were centrifuged at 1000 g for 10 min, then 100 uL of each supernatant was transferred to wells of a 96-well plate. The optical density at 540 nm was measured using a microplate reader (Infinite 200 PRO, Tecan Group Ltd., Switzerland) and % hemolysis was calculated using the formula: Hemolysis(%)=ODS-ODB/ODP-ODB×100% where ODS, ODB, and ODP represent the optical density of the SLP-treated samples, negative control and positive control, respectively. 1% Triton X-100 was used for the positive control. Each sample was run in triplicate.
Fig 3 Hemolytic activity of lipopeptides. (A) The indicated concentration of SLPs were added to a 1% porcine RBC suspension in PBS, followed by incubation for 1 h at 37 °C and centrifugation. Pictures were taken after collecting a portion of the supernatant for quantification of hemolysis. (B) Hemolytic curve. Hemolysis (measured at OD540) is shown as a function of SLP concentration. 100% represents the OD obtained using 0.1% Triton X-100-treated red blood cells.

PEDV [3] = assay: Time of addition assay (viral N protein by western blot, viral RNA by qRT-PCR); type: cell-based, Porcine epidemic diarrhea virus; settings: Vero cells, 1000 PFU PEDV, harvested 12 hpi, SLP5 50 μg/ml, surfactin 20 μg/ml
Procedure: Time of addition assay was performed according to the procedures described, with modifications. Confluent Vero cells in 12-well plates were infected with 1000 PFU of PEDV and incubated for 1 hr at 4 °C to synchronize infection. The inoculum was removed and 1 mL of 37 °C DMEM was added to each well, cells were then placed at 37 °C in a humidified incubator. At the indicated time points, SLP5, surfactin, or dielaidoyl-phosphatidylethanolamine (DEPE, AvantiPolarLipids, Alabaster, AL) was added dropwise to cells or virus to a final concentration of 50 μg/ml, 20 μg/ml, or 5 μg/ml and incubated a further 12 hours at 37 °C. Viral nucleic acid and protein levels in the cells were measured by qRT-PCR and western-blot respectively. The data shown is representative of 3 independent experiments.
Total RNA was extracted from cells using TRIzol Reagent (Invitrogen) according to the manufacturer’s instructions. cDNA was generated by reverse transcription using HiScript TM QRT SuperMix for qPCR (Vazyme) according to the manufacturer’s instructions. PEDV nucleic acid levels were assessed by measuring the viral nucleoprotein (N) using qRT-PCR with the TaKaRa SYBR Green qPCR Kit (TaKaRa). Primer sequences were as follows: PEDV-N-F (sense), 5’-[…]-3’; PEDV-N-R (antisense), 5’-[…]-3’; C-sabaeus-GAPDH-F, 5’-[…]-3’; C-sabaeus-GAPDH-R, 5’-[…]-3’. Gene level was calculated using the comparative Ct method and normalized to the endogenous levels of GAPDH.
Boiled cell lysates were subjected to SDS-PAGE then transferred to PVDF membrane (Roche, Basel, Switzerland) using a semi-dry transfer apparatus (GE, Little Chalfont, Buckinghamshire, UK). Membranes were blocked in 5% non-fat milk in TBS containing 0.01% Tween-20 (TBST) then incubated overnight at 4 °C with anti-PEDV N-protein monoclonal antibody (Median Diagnostics, South Korea) diluted in TBST with 1% BSA. Membranes were washed 30 min in TBST followed by incubation for 1 h at RT with 1:5000 HRP goat anti-mouse IgG antibody (ABGENT, San Diego, CA, USA) then thrice washed for 15 min in TBST. Membranes were incubated with ECL reagent (Thermo, Waltham, MA, USA) and imaged using a ChemiDoc™ system (Bio-Rad, Hercules, CA, USA).
Since SLP5 was the most promising surfactin analogue, we chose it for further study. Time of addition assays were performed to determine whether the SLP5 exerts its anti-PEDV effect at the same stage during infection as surfactin. Since surfactin acts directly on virions, the experiment was designed to examine events early in the infection process. Fig 6A summarizes the experimental plan and the eight treatments tested. Briefly, SLP5, surfactin, or DEPE was added to virus alone, cells alone, or to cells and virus together prior to infection, during virus adsorption, during virus invasion (1 h post infection at 37 °C), or during replication (1–12 hpi). Samples were harvested 12 hours after infection, and analyzed to measure cellular levels of viral protein (Fig 6B and 6C) and viral RNA (Fig 6D). […] Other antiviral mechanisms of SLP5 and surfactin cannot be ruled out since PEDV replication is inhibited to different degrees in some of the other treatment groups.
Fig 6 Time-of-addition experiments. (A) Vero cells were treated with SLP5, surfactin, or DEPE at different time points before, during, and after infection. […] (B) The PEDV nucleoprotein was detected by Western-blot, and (C) quantitated by band intensity relative to the internal control, GAPDH. (D) The PEDV genome was detected by qRT-PCR. […]

PEDV [4] = settings: cited from earlier work
Excerpt: In summary, we synthesized 10 surfactin analogues and characterized them to identify those with enhanced anti-viral properties. […] SLP5 is therefore a more promising synthetic surfactin analogue. Compared with surfactin, the structure of SLP5 is distinguished by its linear lipopeptide and the additional carboxyl grou ...

[5] = 100 PFU PEDV pre-incubated with lipopeptide 10 min at 37 °C, adsorbed to Vero cells 30 min at 4 °C, washed, agar overlay 72 h, 3 biological replicates each in triplicate, mean ± SD, log[inhibitor] vs. response fit

Compound: CCCCCCCCCCCCCCCC(=O)N[C@@H](CCC(=O)O)C(=O)N[C@H](C(=O)N[C@H](CC(C)C)C(=O)N[C@@H](C)C(=O)N[C@@H](CC(=O)O)C(=O)N[C@H](CC(C)C)C(=O)N[C@H](C(N)=O)C(C)C)C(C)C [SLP1] (Palmitoyl-EV[dL]AD[dL]V-NH2)
- EC50 (PEDV CV777; 72 h): 8.0 ± 0.3 µg/mL (≈ 8.04 µM)
- CMC [1]: 5.7 µg/mL
- HPLC retention time (relative hydrophobicity) [2]: 17.6 min
- Hemolytic activity, result in words (porcine RBCs): slightly weaker than that of surfactin
- CC50 (50% cytotoxicity concentration, hemolysis) (porcine RBCs): 52.6 ± 2.3 µg/mL (≈ 52.8 µM)

Compound: CCCCCCCCCCCCCCCC(=O)N[C@@H](CCC(=O)O)C(=O)N[C@H](C(=O)N[C@H](CC(C)C)C(=O)N[C@@H](CC(=O)O)C(=O)N[C@H](CC(C)C)C(=O)N[C@H](C(N)=O)C(C)C)C(C)C [SLP2] (Palmitoyl-EV[dL]D[dL]V-NH2)
- EC50 (PEDV CV777; 72 h): 5.3 ± 0.5 µg/mL (≈ 5.73 µM)
- Anti-PEDV potency compared with surfactin (PEDV CV777; plaque reduction assay, result in words): higher potency than surfactin
- CMC [1]: 4.2 µg/mL
- HPLC retention time (relative hydrophobicity) [2]: 16.7 min
- CC50 (50% cytotoxicity concentration, hemolysis) (porcine RBCs): 33.0 ± 1.6 µg/mL (≈ 35.7 µM)

Compound: CCCCCCCCCCCCCCCC(=O)N[C@@H](CCC(=O)O)C(=O)N[C@H](C(=O)N[C@H](CC(C)C)C(=O)N[C@@H](CC(=O)O)C(=O)N[C@H](CC(C)C)C(N)=O)C(C)C [SLP3] (Palmitoyl-EV[dL]D[dL]-NH2)
- EC50 (PEDV CV777; [5]): 16.9 ± 1.6 µg/mL (≈ 20.5 µM)
- CMC [1]: 6.4 µg/mL
- HPLC retention time (relative hydrophobicity) [2]: 14.5 min
- CC50 (50% cytotoxicity concentration, hemolysis) (porcine RBCs): 69.7 ± 2.6 µg/mL (≈ 84.5 µM)

Compound: Surfactin
- EC50 (PEDV CV777; [5]): 11.4 ± 0.7 µg/mL
- PEDV replication (nucleic acid and protein levels), reagent present throughout the experiment (treatment group 2) or at any stage (PEDV [3]; DEPE 5 μg/ml, 3 independent experiments): little PEDV replication occurs
- PEDV replication, treatment group 5 (PEDV [3]; same as group 2 (little replication)): act directly on the virus
- CMC [1]: 12.1 µg/mL
- Protection of piglets from PEDV challenge (PEDV [4]): protect piglets from PEDV challenge

Reference: paper PMC6459484, “Synthetic surfactin analogues have improved anti-PEDV properties” (PLoS ONE, 2019)
